Reference: ChEMBL document CHEMBL4265889, “Design and synthesis of tetrahydropyridopyrimidine based Toll-Like Receptor (TLR) 7/8 dual agonists” (Bioorg Med Chem Lett, 2018)

Tests used:
Homo sapiens [1] = species: Homo sapiens; test: Binding affinity to histamine receptor (unknown origin)
[2] = biological target: T1, Toll-like receptor 8 (Homo sapiens) (UniProt Q9NR97); test: Agonist activity at human TLR8 expressed in HEK293 cells after 6 hrs by NFkappaB-luciferase reporter gene assay; format: cell-based
T1 sequence (whole entry): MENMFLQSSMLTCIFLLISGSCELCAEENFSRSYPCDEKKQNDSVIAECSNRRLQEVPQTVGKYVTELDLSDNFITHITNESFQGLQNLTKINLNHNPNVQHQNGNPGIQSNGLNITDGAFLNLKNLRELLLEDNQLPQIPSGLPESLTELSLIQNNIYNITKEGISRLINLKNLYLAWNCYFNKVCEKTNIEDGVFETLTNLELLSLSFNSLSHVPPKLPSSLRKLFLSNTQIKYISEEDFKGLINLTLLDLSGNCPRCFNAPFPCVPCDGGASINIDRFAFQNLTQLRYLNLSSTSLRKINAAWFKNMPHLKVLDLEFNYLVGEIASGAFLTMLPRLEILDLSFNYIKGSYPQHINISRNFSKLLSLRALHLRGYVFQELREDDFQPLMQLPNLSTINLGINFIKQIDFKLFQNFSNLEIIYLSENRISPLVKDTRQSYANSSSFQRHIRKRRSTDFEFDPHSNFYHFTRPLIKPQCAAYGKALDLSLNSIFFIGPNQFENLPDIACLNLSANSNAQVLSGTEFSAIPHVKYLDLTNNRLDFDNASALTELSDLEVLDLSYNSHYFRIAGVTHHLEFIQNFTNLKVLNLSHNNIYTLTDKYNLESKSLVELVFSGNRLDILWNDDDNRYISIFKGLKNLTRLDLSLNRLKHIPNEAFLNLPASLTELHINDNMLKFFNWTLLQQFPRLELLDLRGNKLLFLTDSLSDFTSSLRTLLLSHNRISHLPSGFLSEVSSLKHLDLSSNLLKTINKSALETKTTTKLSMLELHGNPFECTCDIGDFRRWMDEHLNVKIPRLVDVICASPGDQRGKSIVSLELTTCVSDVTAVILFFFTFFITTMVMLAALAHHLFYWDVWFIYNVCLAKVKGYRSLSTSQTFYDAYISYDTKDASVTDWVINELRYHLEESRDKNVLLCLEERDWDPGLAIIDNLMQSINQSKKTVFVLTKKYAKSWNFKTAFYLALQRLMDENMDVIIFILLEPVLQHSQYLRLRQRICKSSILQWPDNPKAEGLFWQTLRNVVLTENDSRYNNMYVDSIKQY

Mus musculus = test: Induction of innate immune response in C57BL/6 mouse assessed as IP-10 Tmax at 5 mg/kg, po; format: functional, organism-based
[3] = AUC (0 to last) in C57BL/6 mouse plasma at 5 mg/kg, po; format: ADME, organism-based; design: dose 5 mg/kg, route oral, time 0 - last
Homo sapiens [4] = species: Homo sapiens; test: Binding affinity to serotonin receptor (unknown origin)
[5] = AUC (0 to last) in C57BL/6 mouse liver at 5 mg/kg, po; format: ADME, organism-based; conditions: in vivo
[6] = Protein binding in mouse plasma; format: ADME, cell-free; conditions: read-out: PPB (converted)
[7] = Cytotoxicity against HEK293 cells transfected with the CMV-TLR7 construct assessed as reduction in cell viability after 6 hrs by ATPlite assay; format: cell-based; conditions: human
[8] = Drug metabolism in mouse liver microsomes at 1 uM after 15 mins; format: ADME, microsome; conditions: read-out: Drug metabolism
Cytochrome P450 1A2 = biological target: T2, Cytochrome P450 1A2 (Homo sapiens, UniProt P05177); test: Inhibition of CYP1A2 (unknown origin); format: ADME
T2 sequence (P05177 whole entry): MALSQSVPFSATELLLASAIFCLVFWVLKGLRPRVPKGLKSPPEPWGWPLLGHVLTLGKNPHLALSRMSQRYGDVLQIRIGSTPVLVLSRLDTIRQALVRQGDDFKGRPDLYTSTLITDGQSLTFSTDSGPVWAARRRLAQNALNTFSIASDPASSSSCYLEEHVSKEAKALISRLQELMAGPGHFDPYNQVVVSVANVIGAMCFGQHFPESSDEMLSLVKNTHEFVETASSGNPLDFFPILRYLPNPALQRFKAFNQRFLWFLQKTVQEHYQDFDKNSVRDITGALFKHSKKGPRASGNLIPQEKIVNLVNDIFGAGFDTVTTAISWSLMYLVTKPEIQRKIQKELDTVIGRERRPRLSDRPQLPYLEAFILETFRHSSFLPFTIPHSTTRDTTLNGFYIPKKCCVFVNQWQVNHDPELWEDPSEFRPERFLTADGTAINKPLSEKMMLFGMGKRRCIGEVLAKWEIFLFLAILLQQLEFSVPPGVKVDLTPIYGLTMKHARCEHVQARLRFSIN

## CCC[C@@H](CCO)Nc1nc(N)nc2c1CN(C(=O)c1csc(C)n1)CC2
Homo sapiens [1]
  Activity: > 10 µM
[2]
  MEC: 3.4 µM
Mus musculus
  Tmax: 4 h
[3]
  AUC(0-t): 70 ng·h/mL
Homo sapiens [4]
  Activity: > 10 µM
[5]
  AUClast: 1410 ng·h/g
[6]
  fraction unbound: 0.7
[7]
  CC50 at 6 h: > 24 µM
[8]
  metabolised at 0.25 h, 1 µM: 33%
Cytochrome P450 1A2
  IC50: > 10 µM
